Where a SMILES comes first, the peptide text is derived from it. [ ]: non-standard residue; d: D form. Arg(Me) = CNC(=N)NCCC[C@H](N)C(=O)O; d3Pal = N[C@H](Cc1cccnc1)C(=O)O; azaGly = NNC(=O)O
How the values were obtained:
Activin receptor type-1 = Activin receptor type-1 (Homo sapiens, UniProt Q04771); test: Affinity Phenotypic Cellular interaction: (Western Blot (inhibition of ALK2 catalysed phosphorylation of SMAD1/5/8, BMP branch signalling)) EUB0001184b ACVRL1; type: functional; parameters: mode of action Inhibitor, recommended concentration 1 uM
[1] = molecular target: T1, Casein kinase I isoform epsilon (Homo sapiens, UniProt P49674); test: Affinity Phenotypic Cellular interaction: (Western Blot assay (inhibition of CSNK1D/E-mediated phosphorylation of DVL3, analyzed by change in phosphorylation-dependent mobility shift)) EUB0001205a CSNK1E; type: functional; parameters: mode of action Inhibitor, recommended concentration 1 uM
[2] = molecular target: T1, Casein kinase I isoform epsilon; type: functional
[3] = molecular target: T2, Casein kinase I isoform alpha (Homo sapiens, UniProt P48729); test: Affinity Phenotypic Cellular interaction: (Western Blot assay (inhibition of CSNK1D/E-mediated phosphorylation of DVL3, analyzed by change in phosphorylation-dependent mobility shift)) EUB0001205a CSNK1A1; type: functional; parameters: mode of action Inhibitor, recommended concentration 1 uM
[4] = molecular target: T3, Casein kinase I isoform delta (Homo sapiens, UniProt P48730); test: Affinity Phenotypic Cellular interaction: (Western Blot assay (inhibition of CSNK1D/E-mediated phosphorylation of DVL3, analyzed by change in phosphorylation-dependent mobility shift)) EUB0001205a CSNK1D; type: functional; parameters: mode of action Inhibitor, recommended concentration 1 uM
[5] = molecular target: T3, Casein kinase I isoform delta; type: functional
[6] = molecular target: T2, Casein kinase I isoform alpha; type: functional
[7] = molecular target: T2, Casein kinase I isoform alpha; type: functional, cell-based, T-REx-293
[8] = molecular target: T4, Cyclin-dependent kinase 8 (Homo sapiens, UniProt P49336); test: Affinity Phenotypic Cellular interaction: (Reporter-based luciferase assay (in LS174T cell line (xcexb2-catenin mutant) bearing activating WNT-pathway mutations)) EUB0001623a CDK8; type: functional; parameters: mode of action Inhibitor, recommended concentration 100 nM
[9] = molecular target: T4, Cyclin-dependent kinase 8; test: Affinity Phenotypic Cellular interaction: (Reporter-based luciferase assay (in COLO205 (APC mutant) bearing activating WNT-pathway mutations)) EUB0001623a CDK8; type: functional, cell-based; parameters: mode of action Inhibitor, recommended concentration 100 nM; conditions: colo 205
[10] = molecular target: T4, Cyclin-dependent kinase 8; test: Affinity Phenotypic Cellular interaction: (Reporter-based luciferase assay (in PA-1 cell line bearing activating WNT-pathway mutations)) EUB0001623a CDK8; type: functional; parameters: mode of action Inhibitor, recommended concentration 100 nM
KiSS-1 receptor = KiSS-1 receptor (Homo sapiens, UniProt Q969F8); test: Affinity Phenotypic Cellular interaction: (Agonist activity for hGPR54 (C-terminal ethyl amide)) EUB0001072a KISS1R; type: functional; parameters: mode of action Negative control for KISS1-305, recommended concentration 1 uM
[11] = molecular target: T5, RAF proto-oncogene serine/threonine-protein kinase (Homo sapiens, UniProt P04049); test: Affinity Phenotypic Cellular interaction: (Western blot assay (phosphorylation of ERK in HMEC cells expressing BRAF/RAS wt)) EUB0000655a RAF1; type: functional, cell-based; parameters: mode of action Inhibitor, recommended concentration 1 uM
[12] = molecular target: T5, RAF proto-oncogene serine/threonine-protein kinase; test: Affinity Phenotypic Cellular interaction: (Western blot assay (phosphorylation of ERK in HFF cells expressing BRAF/RAS wt)) EUB0000655a RAF1; type: functional, cell-based; parameters: mode of action Inhibitor, recommended concentration 1 uM
[13] = molecular target: T5, RAF proto-oncogene serine/threonine-protein kinase; test: Affinity Phenotypic Cellular interaction: (Western blot assay (phosphorylation of ERK in HT-29 cells expressing BRAF V600E/RAS wt)) EUB0000655a RAF1; type: functional, cell-based; parameters: mode of action Inhibitor, recommended concentration 1 uM
[14] = molecular target: T5, RAF proto-oncogene serine/threonine-protein kinase; test: Affinity Phenotypic Cellular interaction: (Western blot assay (phosphorylation of ERK in HCT-116 cells expressing BRAF wt/K-Ras2(G13D))) EUB0000655a RAF1; type: functional, cell-based; parameters: mode of action Inhibitor, recommended concentration 1 uM
[15] = molecular target: T5, RAF proto-oncogene serine/threonine-protein kinase; test: Affinity Phenotypic Cellular interaction: (Western blot assay (phosphorylation of ERK in SKMEL2 cells expressing BRAF wt/N-Ras2(Q61R))) EUB0000655a RAF1; type: functional, cell-based, SK-MEL-2; parameters: mode of action Inhibitor, recommended concentration 1 uM
[16] = molecular target: T5, RAF proto-oncogene serine/threonine-protein kinase; test: Affinity Phenotypic Cellular interaction: (Western blot assay (phosphorylation of ERK in […] cells expressing BRAF V600E/RAS wt)) EUB0000655a RAF1; type: functional, cell-based, COLO 205; parameters: mode of action Inhibitor, recommended concentration 1 uM
[17] = molecular target: T5, RAF proto-oncogene serine/threonine-protein kinase; test: Affinity Phenotypic Cellular interaction: (Western blot assay (phosphorylation of ERK in MALME-3M cells expressing BRAF V600E/RAS wt)) EUB0000655a RAF1; type: functional, cell-based; parameters: mode of action Inhibitor, recommended concentration 1 uM
[18] = molecular target: T5, RAF proto-oncogene serine/threonine-protein kinase; test: Affinity Phenotypic Cellular interaction: (Western blot assay (phosphorylation of ERK in HT-1080 cells expressing BRAF wt/N-Ras2(Q61K))) EUB0000655a RAF1; type: functional, cell-based; parameters: mode of action Inhibitor, recommended concentration 1 uM
[19] = molecular target: T5, RAF proto-oncogene serine/threonine-protein kinase; test: Affinity Phenotypic Cellular interaction: (Western blot assay (phosphorylation of ERK in PREC cells expressing BRAF/RAS wt)) EUB0000655a RAF1; type: functional, cell-based; parameters: mode of action Inhibitor, recommended concentration 1 uM
[20] = molecular target: T5, RAF proto-oncogene serine/threonine-protein kinase; test: Affinity Phenotypic Cellular interaction: (Western blot assay (phosphorylation of ERK in A375P cells expressing BRAF V600E/RAS wt)) EUB0000655a RAF1; type: functional, cell-based; parameters: mode of action Inhibitor, recommended concentration 1 uM
[21] = molecular target: Interleukin-1 receptor-associated kinase 4 (Homo sapiens, UniProt Q9NWZ3); test: Affinity Phenotypic Cellular interaction: (R848-induced IL-6 production in human whole blood) EUB0001558a IRAK4; type: functional, tissue-based; parameters: mode of action Inhibitor, recommended concentration 1 uM
[22] = molecular target: T6, Leucine-rich repeat serine/threonine-protein kinase 2 (Homo sapiens, UniProt Q5S007, G2019S); type: functional, subcellular, Brain, lysate
[23] = molecular target: T6, Leucine-rich repeat serine/threonine-protein kinase 2; type: functional, subcellular, Brain, lysate; remark: listed apart in the source
[24] = molecular target: Cyclin-dependent kinase 13 (Homo sapiens, UniProt Q14004); test: Affinity Phenotypic Cellular interaction: (In-Cell western blot (using MDA-MB-231 cells)) EUB0001632a CDK13; type: functional, cell-based; parameters: mode of action Inhibitor, recommended concentration 1 uM
[25] = molecular target: Inhibitor of nuclear factor kappa-B kinase subunit beta (Homo sapiens, UniProt O14920); test: Affinity Phenotypic Cellular interaction: (Inhibition of expression of ICAM-1 in HeLa cells) EUB0001492b IKBKB; type: functional, cell-based; parameters: mode of action Inhibitor, recommended concentration 1 uM
[26] = molecular target: Mitotic checkpoint serine/threonine-protein kinase BUB1 (Homo sapiens, UniProt O43683); type: functional, cell-based, HeLa

T2 sequence (P48729 whole entry, canonical isoform): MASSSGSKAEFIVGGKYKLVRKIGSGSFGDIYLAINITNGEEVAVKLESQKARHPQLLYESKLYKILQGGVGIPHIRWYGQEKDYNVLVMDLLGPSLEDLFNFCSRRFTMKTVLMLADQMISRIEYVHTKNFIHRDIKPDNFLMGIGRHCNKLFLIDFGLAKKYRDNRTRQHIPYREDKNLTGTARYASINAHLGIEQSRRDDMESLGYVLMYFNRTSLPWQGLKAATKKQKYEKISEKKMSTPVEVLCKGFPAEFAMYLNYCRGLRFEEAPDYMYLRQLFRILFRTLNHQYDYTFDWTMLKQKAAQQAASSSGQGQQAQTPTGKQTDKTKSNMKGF
T4 sequence (P49336 whole entry, looked up, change not shown): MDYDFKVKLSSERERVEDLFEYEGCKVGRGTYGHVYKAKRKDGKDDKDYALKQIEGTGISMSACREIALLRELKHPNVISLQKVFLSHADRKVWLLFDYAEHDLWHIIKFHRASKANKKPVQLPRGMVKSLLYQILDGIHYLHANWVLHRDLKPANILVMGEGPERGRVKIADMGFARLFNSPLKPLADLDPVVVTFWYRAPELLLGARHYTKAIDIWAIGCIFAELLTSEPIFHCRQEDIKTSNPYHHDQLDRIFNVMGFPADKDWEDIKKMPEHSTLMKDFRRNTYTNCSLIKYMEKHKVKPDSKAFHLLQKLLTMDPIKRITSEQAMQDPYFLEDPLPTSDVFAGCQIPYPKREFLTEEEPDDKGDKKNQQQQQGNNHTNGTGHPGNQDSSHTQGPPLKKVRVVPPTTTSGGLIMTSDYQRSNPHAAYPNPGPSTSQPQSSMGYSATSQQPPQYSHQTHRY
T5 sequence (P04049 whole entry): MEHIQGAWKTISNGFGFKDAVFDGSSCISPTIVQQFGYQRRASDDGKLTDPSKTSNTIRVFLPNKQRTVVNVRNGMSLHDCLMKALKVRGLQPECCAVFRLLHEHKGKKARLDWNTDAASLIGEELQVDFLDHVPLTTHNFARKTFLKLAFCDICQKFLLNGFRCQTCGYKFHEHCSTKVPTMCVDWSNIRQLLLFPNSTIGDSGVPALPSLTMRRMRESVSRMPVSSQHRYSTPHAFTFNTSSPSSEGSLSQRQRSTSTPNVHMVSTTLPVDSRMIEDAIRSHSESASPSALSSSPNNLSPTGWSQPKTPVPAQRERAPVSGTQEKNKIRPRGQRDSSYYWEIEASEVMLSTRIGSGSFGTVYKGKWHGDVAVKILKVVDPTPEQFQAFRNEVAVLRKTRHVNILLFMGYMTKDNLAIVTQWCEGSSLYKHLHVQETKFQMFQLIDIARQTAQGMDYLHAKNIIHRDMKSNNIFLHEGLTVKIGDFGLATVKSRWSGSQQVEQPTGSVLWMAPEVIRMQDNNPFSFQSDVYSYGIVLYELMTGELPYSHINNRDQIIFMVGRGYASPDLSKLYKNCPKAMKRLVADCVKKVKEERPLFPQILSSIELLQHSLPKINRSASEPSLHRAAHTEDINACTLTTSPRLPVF
T3 sequence (P48730 whole entry, canonical isoform): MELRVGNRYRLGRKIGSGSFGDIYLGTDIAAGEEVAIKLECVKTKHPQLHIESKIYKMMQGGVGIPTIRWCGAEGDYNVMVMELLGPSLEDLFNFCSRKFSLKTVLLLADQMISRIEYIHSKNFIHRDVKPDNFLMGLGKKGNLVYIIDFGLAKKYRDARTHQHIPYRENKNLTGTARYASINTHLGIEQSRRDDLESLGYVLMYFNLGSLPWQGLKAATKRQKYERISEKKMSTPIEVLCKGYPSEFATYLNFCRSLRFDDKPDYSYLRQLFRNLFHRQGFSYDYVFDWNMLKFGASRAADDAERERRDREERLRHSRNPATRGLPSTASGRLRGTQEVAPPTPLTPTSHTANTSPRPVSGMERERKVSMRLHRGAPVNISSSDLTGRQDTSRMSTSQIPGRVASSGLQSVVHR
T1 sequence (P49674 whole entry, canonical isoform): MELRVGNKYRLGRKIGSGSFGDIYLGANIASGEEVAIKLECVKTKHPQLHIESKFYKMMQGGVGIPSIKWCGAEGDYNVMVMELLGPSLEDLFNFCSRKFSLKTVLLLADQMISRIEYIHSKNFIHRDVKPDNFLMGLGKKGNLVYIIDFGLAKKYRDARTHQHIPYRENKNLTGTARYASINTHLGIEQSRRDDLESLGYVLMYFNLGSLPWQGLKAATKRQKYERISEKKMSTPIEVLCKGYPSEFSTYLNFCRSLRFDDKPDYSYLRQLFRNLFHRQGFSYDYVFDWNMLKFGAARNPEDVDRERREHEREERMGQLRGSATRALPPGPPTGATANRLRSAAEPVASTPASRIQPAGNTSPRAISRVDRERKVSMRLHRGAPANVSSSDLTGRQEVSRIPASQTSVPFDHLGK
T6 sequence (Q5S007 whole entry G2019S): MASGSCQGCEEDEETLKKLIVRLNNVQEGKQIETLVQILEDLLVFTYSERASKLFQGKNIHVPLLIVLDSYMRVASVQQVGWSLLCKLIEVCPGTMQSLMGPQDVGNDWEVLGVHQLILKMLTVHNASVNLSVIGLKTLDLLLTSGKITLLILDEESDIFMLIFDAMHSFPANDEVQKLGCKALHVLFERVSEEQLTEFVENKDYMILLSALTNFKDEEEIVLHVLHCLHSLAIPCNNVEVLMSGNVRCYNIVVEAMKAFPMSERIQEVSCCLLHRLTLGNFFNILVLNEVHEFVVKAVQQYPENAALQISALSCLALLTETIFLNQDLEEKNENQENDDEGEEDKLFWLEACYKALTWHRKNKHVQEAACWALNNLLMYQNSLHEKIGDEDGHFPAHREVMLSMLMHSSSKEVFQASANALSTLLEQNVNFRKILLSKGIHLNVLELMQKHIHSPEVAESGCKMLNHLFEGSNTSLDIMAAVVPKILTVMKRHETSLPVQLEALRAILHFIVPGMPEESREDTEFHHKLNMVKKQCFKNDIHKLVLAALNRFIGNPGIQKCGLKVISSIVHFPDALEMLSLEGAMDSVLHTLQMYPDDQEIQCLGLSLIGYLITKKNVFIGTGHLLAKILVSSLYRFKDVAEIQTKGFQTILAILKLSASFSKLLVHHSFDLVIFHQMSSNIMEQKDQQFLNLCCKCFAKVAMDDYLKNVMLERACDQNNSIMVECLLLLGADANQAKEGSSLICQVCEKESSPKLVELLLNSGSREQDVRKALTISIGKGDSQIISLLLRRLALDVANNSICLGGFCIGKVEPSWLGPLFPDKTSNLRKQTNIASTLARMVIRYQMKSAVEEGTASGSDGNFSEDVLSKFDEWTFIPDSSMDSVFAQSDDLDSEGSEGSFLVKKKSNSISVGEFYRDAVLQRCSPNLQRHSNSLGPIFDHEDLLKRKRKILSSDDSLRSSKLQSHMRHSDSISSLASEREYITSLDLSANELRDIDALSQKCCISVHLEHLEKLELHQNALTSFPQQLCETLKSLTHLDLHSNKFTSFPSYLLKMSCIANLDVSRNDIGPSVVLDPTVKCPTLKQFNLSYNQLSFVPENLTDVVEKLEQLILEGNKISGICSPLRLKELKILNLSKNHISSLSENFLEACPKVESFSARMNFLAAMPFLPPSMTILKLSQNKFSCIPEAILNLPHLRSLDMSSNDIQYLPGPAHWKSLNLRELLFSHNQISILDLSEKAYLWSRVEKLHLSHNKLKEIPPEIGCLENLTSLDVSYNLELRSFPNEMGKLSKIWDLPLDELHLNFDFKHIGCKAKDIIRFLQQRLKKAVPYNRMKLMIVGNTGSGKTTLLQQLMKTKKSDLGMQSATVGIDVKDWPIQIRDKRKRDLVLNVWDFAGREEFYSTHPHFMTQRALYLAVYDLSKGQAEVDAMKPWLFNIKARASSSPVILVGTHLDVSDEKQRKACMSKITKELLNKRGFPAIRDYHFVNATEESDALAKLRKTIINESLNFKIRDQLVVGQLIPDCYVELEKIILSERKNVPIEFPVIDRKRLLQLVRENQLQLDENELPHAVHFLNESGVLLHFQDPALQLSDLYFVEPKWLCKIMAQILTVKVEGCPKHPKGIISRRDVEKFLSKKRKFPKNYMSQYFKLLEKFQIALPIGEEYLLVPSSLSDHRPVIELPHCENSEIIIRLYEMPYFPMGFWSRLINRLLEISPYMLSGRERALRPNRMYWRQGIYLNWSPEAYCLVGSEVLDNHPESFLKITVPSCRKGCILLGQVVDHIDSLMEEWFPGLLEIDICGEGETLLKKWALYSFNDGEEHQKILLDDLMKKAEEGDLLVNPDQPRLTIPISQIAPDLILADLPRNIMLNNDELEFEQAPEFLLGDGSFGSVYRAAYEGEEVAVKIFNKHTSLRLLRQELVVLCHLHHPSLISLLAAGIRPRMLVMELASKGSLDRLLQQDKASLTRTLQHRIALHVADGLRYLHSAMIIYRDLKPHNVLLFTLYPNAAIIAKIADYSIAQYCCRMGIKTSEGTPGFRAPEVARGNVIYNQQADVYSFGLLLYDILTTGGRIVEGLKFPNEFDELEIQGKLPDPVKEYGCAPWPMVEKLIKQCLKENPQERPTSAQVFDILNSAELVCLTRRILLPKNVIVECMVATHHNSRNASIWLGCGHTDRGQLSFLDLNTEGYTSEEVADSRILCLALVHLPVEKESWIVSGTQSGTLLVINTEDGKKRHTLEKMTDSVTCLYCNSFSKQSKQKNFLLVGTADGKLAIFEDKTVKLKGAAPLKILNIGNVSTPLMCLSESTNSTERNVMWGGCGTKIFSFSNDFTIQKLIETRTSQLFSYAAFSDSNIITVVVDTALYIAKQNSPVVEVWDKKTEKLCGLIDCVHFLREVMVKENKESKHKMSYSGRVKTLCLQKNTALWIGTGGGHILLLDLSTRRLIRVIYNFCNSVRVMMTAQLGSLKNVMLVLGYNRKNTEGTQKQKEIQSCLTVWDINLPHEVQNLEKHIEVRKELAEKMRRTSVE

`COc1cc(-c2cncc(-c3ccc(N4CCN(C(C)C)CC4)cc3)c2C)cc(F)c1C(N)=O` was tested. Which EC50 (Activin receptor type-1) did it give?
Its EC50 is < 100 nM.

For `CN1CCC(F)(Cn2cnc(-c3ccc(F)cn3)c2-c2ccnc3[nH]ccc23)CC1`, which EC50 [1] is on record?
Its EC50 is 200 nM.

And the IC50 [2]?
The IC50 was 1600 nM.

What about the EC50 [3] of the same compound?
Its EC50 is 200 nM.

What about the EC50 [4] of the same compound?
The EC50 was 200 nM.

And the IC50 [5]?
The IC50 was 1600 nM.

And the IC50 [6]?
The IC50 was 1600 nM.

What about the IC50 [7] of the same compound?
Its IC50 is 10500 nM.

Which IC50 [8] does the source give for `Cc1n[nH]c2ncc(C(=O)N3CCC[C@H]3c3ccc(Cl)cc3)cc12` here?
Its IC50 is 32000 nM.

And the IC50 [9]?
The IC50 was 9 nM.

And the IC50 [10]?
Its IC50 is 52 nM.

How did the EC50 (KiSS-1 receptor) turn out when `CNC(=N)NCCC[C@H](NC(=O)[C@H](CC(C)C)NC(=O)NNC(=O)[C@H](Cc1ccccc1)NC(=O)[C@H](CO)NC(=O)[C@H](CC(N)=O)NC(=O)[C@@H](Cc1cccnc1)NC(=O)[C@H](N)Cc1ccc(O)cc1)C(=O)NCC(N)=O` [KISS1-543] (H-[dY][d3Pal]NSF[azaGly]L[Arg(Me)]G-NH2) was run?
Its EC50 is > 10000 nM.

For `CN(C)CCOc1ccc(-c2nc(-c3ccncc3)c(-c3ccc4c(c3)CC/C4=N\O)[nH]2)cc1` [SB590885], which IC50 [11] is on record?
Its IC50 is 5100 nM.

And the IC50 [12]?
Its IC50 is 11000 nM.

And the IC50 [13]?
The IC50 was 58 nM.

What about the IC50 [14] of the same compound?
Its IC50 is 1100 nM.

And the IC50 [15]?
The IC50 was 1500 nM.

And the IC50 [16]?
The IC50 was 28 nM.

And the IC50 [17]?
Its IC50 is 190 nM.

And the IC50 [18]?
Its IC50 is > 13000 nM.

And the IC50 [19]?
The IC50 was 6100 nM.

What about the IC50 [20] of the same compound?
Its IC50 is 290 nM.

Which IC50 [21] does the source give for `CC(C)(O)[C@H](F)CN1Cc2cc(NC(=O)c3cnn4cccnc34)c(N3CCOCC3)cc2C1=O` here?
The IC50 was 190 nM.

What does the source list for `N#Cc1cccc(-c2c[nH]c3ncnc(N4CCOCC4)c23)c1`?
IC50 [22]: 21 nM; IC50 [23]: 103 nM

Which EC50 [24] does the source give for `Cn1cc(-n2cnc3c(NCc4nc5cc(Cl)c(Cl)cc5[nH]4)nc(N4CCOCC4)nc32)cn1` here?
The EC50 was 105 nM.

With `CCC(F)(F)c1cc(N2CCC(S(C)(=O)=O)CC2)nc2sc(C(N)=O)c(N)c12` [BI-605906] as the compound, how does the EC50 [25] read?
The EC50 was 700 nM.

Which IC50 [26] does the source give for `COc1cnccc1Nc1nc(-c2nn(Cc3c(F)cc(OCCO)cc3F)c3ccccc23)ncc1OC` here?
The IC50 was > 10 nM.
